# “Also recorded” adds a separate entry of the source.
# Experiments:
# [1] = tested on: human PBM cells; details: read-out: Cytotoxicity IC50 PBM; uninfected PHA-stimulated human PBM cells
# [2] = tested on: HIV-1/LAI; type: cell-based; details: for EC50: read-out: Anti-HIV-1 activity in human PBM cells EC50, HIV-1/LAI, median effect method; for activity against HIV-1 (in words): human PBM cells
# [3] = in vitro; details: African green monkey, Vero (African green monkey kidney) cells
# [4] = in vitro; details: human
# [5] = in vitro; details: human, uninfected PHA-stimulated human PBM cells
# [6] = tested on: CEM (T-lymphoblastoid cell line)
# [7] = tested on: Vero (African green monkey kidney) cells; details: read-out: Cytotoxicity IC50 Vero
# [8] = tested on: HIV-1; details: ref De Corte 2005; Pauwels et al. 1993; cited from earlier work
SMILES,IC50 [3] [µM],IC50 [4] [µM],IC50 [5] [µM],also measured
"Cc1cn([C@H]2C[C@H](N=[N+]=[N-])[C@@H](CO)O2)c(=O)[nH]c1=O [AZT, 3′-Azido-2′,3′-dideoxythymidine, reference compound]",–,–,–,IC50 [1]: > 100 µM
"Cc1ccc(NC(C#N)c2ccc(OCc3ccc(Cl)cc3Cl)cc2)cc1 (stereo not shown) [Compound 2h, 2-[4-(2,4-Dichlorobenzyloxy)phenyl]-2-(4-toluidino)acetonitrile]",39.7,11.7,15,EC50 [2]: 3.1 µM
"Cc1ccc(N2C(=O)CCC2(C#N)c2ccc(OC(C)C)cc2)cc1 (stereo not shown) [Compound 3e, 2-(4-Isopropoxyphenyl)-1-(4-methylphenyl)-5-oxo-2-pyrrolidinecarbonitrile]",46.5,17,> 100,–
"Cc1ccc(N2C(=O)CCC2(C#N)c2ccc(OCc3ccccc3)cc2)cc1 (stereo not shown) [Compound 3g, 2-(4-Benzyloxyphenyl)-1-(4-methylphenyl)-5-oxo-2-pyrrolidinecarbonitrile]",53.9,30.3,> 100,–
"Cc1ccc(N2C(=O)CCC2(C#N)c2ccc(OCc3ccc(Cl)cc3Cl)cc2)cc1 (stereo not shown) [Compound 3h, 2-[4-(2,4-Dichlorobenzyloxy)phenyl]-1-(4-methylphenyl)-5-oxo-2-pyrrolidinecarbonitrile]",21.8,6.6,9.7,–
"Cc1cc(C)cc(NC(C(N)=O)c2c(Cl)cccc2Cl)c1 (stereo not shown) [Compound 4, 2-(2,6-Dichlorophenyl)-2-(3,5-dimethylanilino)acetamide]",68.7,5.8,6.1,activity against HIV-1 (in words) [2]: very potent; also recorded: very active
"Cc1ccc(N2C(=O)CCC2(CN)c2ccccc2)cc1 (stereo not shown) [Compound 5a, 5-Aminomethyl-1-(4-methylphenyl)-5-phenyl-2-pyrrolidinone]",> 100,53.6,54.1,–
"Cc1ccc(N2C(=O)CCC2(CN)c2ccc(OCc3ccccc3)cc2)cc1 (stereo not shown) [Compound 5f, 5-Aminomethyl-5-(4-benzyloxyphenyl)-1-(4-methylphenyl)-2-pyrrolidinone]",12.3,33.7,15.9,–
NCC1(c2ccccc2)CCCN1C(=O)c1ccc(Br)cc1 (stereo not shown) [Compound 10],–,–,–,"activity against HIV-1 (in words) [2]: no inhibition; EC50 [2]: > 100 µM; EC90 ([2]; read-out: Anti-HIV-1 activity in human PBM cells EC90, HIV-1/LAI, median effect method): > 100 µM; IC50 [6]: 96.1 µM; IC50 [1]: > 100 µM; IC50 [7]: > 100 µM"
CC(=O)c1ccc(C)cc1NC(C(N)=O)c1c(Cl)cccc1Cl (stereo not shown) [loviride],–,–,–,"inhibitory concentration relative to the cytotoxic concentration (fold less) [8]: 10,000 fold"
